Measured values: patent US5081242A, “6-benzoxazinyl- and 6-benzothiazinyl 2,3,4,5-tetrahydropyridazin-3-ones” (Ortho Pharmaceutical Corporation, priority 1991, dated 1992)

Key:
adult mongrel dogs = experiment: Cardiotonic activity in anesthetized dogs (myocardial contractile force, i.v.); assay type: in vivo; conditions: Canis lupus familiaris, iv, vs pretreatment control, read-out: CF: Percent increase in cardiac force; for change in vivo at 1.87 mg/kg: i.v. dose 1.87 mpk; for change in vivo at 0.47 mg/kg: i.v. dose 0.47 mpk
Method: The cardiotonic activity of the compounds was determined in accordance with the method of Alousi, A. A., et al., J. Cir. Res. 45, 666 (1979). Basically, adult mongrel dogs were anesthetized with sodium pentobarbital and artificially respired. Arterial pressure was recorded via a femoral artery and the pressure pulse used to trigger a cardiotachometer for heart rate. Left ventricular pressure was measured with a Millar catheter and dP/dt was derived. Cardiac output was determined by measuring ascending aortic blood flow with an electromagnetic flow probe and myocardial contractile force was measured with a Walton Brodie strain gauge sutured to the right ventricle. Lead II EKG was also recorded. A standard does of dopamine was administered to assess myocardial responsiveness. Test compounds were administered by i.v. infusion or bolus administration and the effects on cardiovascular parameters were determined. Dose-related effects of the test compound on BP, HR, dP/dt max., C.F. and C.O. were compared to pretreatment control values and expressed as a percentage change.

[1] = target: cyclic nucleotide phosphodiesterase; experiment: Phosphodiesterase inhibitory activity (cyclic AMP hydrolysis); assay type: biochemical; conditions: read-out: IC50 (50% inhibition of cyclic nucleotide phosphodiesterase activity); cyclic AMP 0.10-1.0 μM, pH 7.4

Compound	IC50 [1] [µM]	change in vivo at 1.87 mg/kg (adult mongrel dogs) [%]	change in vivo at 0.47 mg/kg (adult mongrel dogs) [%]	change in vivo at 0.075 mg/kg (adult mongrel dogs; i.v. dose 0.075 mpk) [%]
CC1CC(=O)NN=C1c1ccc2c(c1)NCCO2 (racemic) [Example 15, 6-(3,4-Dihydro-1,4(2H)-benzoxazin-6-yl)-2,3,4,5-tetrahydro-5-methylpyridazin-3-one]	8	125	–	–
CC(=O)N1CCOc2ccc(C3=NNC(=O)CC3C)cc21 (racemic) [Example 16, 6-(4-Acetyl-3,4-dihydro-1,4(2H)-benzoxazin-6-yl)-2,3,4,5-tetrahydro-5-methylpyridazin-3-one]	30	173	–	–
CC1CC(=O)NN=C1c1ccc2c(c1)N(S(C)(=O)=O)CCO2 (racemic) [Example 17, 6-(3,4-Dihydro-4-methanesulfonyl-1,4(2H)-benzoxazin-6-yl)-2,3,4,5-tetrahydro-5-methylpyridazin-3-one]	4	62	–	–
CC1CC(=O)NN=C1c1ccc2c(c1)N(C)C(=O)CO2 (racemic) [Example 23, 6-(3,4-Dihydro-4-methyl-3-oxo-1,4(2H)-benzoxazin-6-yl)-2,3,4,5-tetrahydro-5-methylpyridazin-3-one]	8	–	134	–
CN1N=C(c2ccc3c(c2)N(S(C)(=O)=O)CCO3)CCC1=O [Example 9, 6-(3,4-Dihydro-4-methanesulfonyl-1,4(2H)-benzoxazin-6-yl)-2,3,4,5-tetrahydro-2-methylpyridazin-3-one]	100	62	–	–
CCCCCN1N=C(c2ccc3c(c2)N(S(C)(=O)=O)CCO3)CCC1=O [Example 10, 6-(3,4-Dihydro-4-methanesulfonyl-1,4(2H)-benzoxazin-6-yl)-2,3,4,5-tetrahydro-2-pentylpyridazin-3-one]	–	18	–	–
C=CCN1N=C(c2ccc3c(c2)N(S(C)(=O)=O)CCO3)CCC1=O [Example 11, 6-(3,4-Dihydro-4-methanesulfonyl-1,4(2H)-benzoxazin-6-yl)-2,3,4,5-tetrahydro-2-(2-propenyl)pyridazin-3-one]	–	41	–	–
O=C1CCC(c2ccc3c(c2)NCCO3)=NN1 [Example 12, 6-(3,4-Dihydro-1,4(2H)-benzoxazin-6-yl)-2,3,4,5-tetrahydropyridazin-3-one]	–	92	–	–
COc1ccc(C(=O)N2CCOc3ccc(C4=NNC(=O)CC4)cc32)cc1OC [Example 14, 6-(3,4-Dihydro-4-(3,4-dimethoxyphenylcarbonyl)-1,4(2H)-benzoxazin-6-yl)-2,3,4,5-tetrahydropyridazin-3-one]	80	30	–	–
CC1CNc2cc(C3=NNC(=O)CC3C)ccc2O1 (centres unmarked) [Example 19, 6-(3,4-Dihydro-2-methyl-1,4(2H)-benzoxazin-6-yl)-2,3,4,5-tetrahydro-5-methylpyridazin-3-one]	40	–	98	–
CC1CC(=O)NN=C1c1ccc2c(c1)NC(=O)C(C)O2 (centres unmarked) [Example 26, 6-(3,4-Dihydro-2-methyl-3-oxo-1,4(2H)-benzoxazin-6-yl)-2,3,4,5-tetrahydro-5-methylpyridazin-3-one]	5	–	156	–
CC1CC(=O)NN=C1c1ccc2c(c1)N(C)C(=O)C(C)O2 (centres unmarked) [Example 27, 6-(3,4-Dihydro-2,4-dimethyl-3-oxo-1,4(2H)-benzoxazin-6-yl)-2,3,4,5-tetrahydro-5-methylpyridazin-3-one]	6	–	117	–
CC1CC(=O)NN=C1c1ccc2c(c1)N(C(C)C)C(=O)C(C)O2 (centres unmarked) [Example 36, 6-(3,4-Dihydro-2-methyl-4-(1-methylethyl)-3-oxo-1,4(2H)-benzoxazin-6-yl)-2,3,4,5-tetrahydro-5-methylpyridazin-3-one]	24	–	40	–
CC1CC(=O)NN=C1c1ccc2c(c1)N(C1CCCC1)C(=O)C(C)O2 (centres unmarked) [Example 37, 6-(3,4-Dihydro-4-cyclopentyl-2-methyl-3-oxo-1,4(2H)-benzoxazin-6-yl)-2,3,4,5-tetrahydro-5-methylpyridazin-3-one]	8	–	4	–
Cc1cc2c(c(C3=NNC(=O)CC3C)c1)OCCN2 (centres unmarked) [Example 42, 6-(3,4-Dihydro-6-methyl-1,4(2H)-benzoxazin-8-yl)-2,3,4,5-tetrahydro-5-methylpyridazin-3-one]	–	–	15	–

Further lines, with some results ahead:

IC50 [1] [µM]	Compound	change in vivo at 1.87 mg/kg (adult mongrel dogs) [%]	change in vivo at 0.47 mg/kg (adult mongrel dogs) [%]	change in vivo at 0.075 mg/kg (adult mongrel dogs; i.v. dose 0.075 mpk) [%]
8	CC1CNc2cc(C3=NNC(=O)CC3)ccc2O1 (racemic) [Example 18, 6-(3,4-Dihydro-2-methyl-1,4(2H)-benzoxazin-6-yl)-2,3,4,5-tetrahydropyridazin-3-one]	–	50	–
2	CC1CC(=O)NN=C1c1ccc2c(c1)NC(=O)CO2 (racemic) [Example 22, 6-(3,4-Dihydro-3-oxo-1,4(2H)-benzoxazin-6-yl)-2,3,4,5-tetrahydro-5-methylpyridazin-3-one]	–	136	–
14	CC1Oc2ccc(C3=NNC(=O)CC3)cc2NC1=O (racemic) [Example 24, 6-(3,4-Dihydro-2-methyl-3-oxo-1,4(2H)-benzoxazin-6-yl)-2,3,4,5-tetrahydropyridazin-3-one]	–	54	–
13	CC1Oc2ccc(C3=NNC(=O)CC3)cc2N(C)C1=O (racemic) [Example 25, 6-(3,4-Dihydro-2,4-dimethyl-3-oxo-1,4(2H)-benzoxazin-6-yl)-2,3,4,5-tetrahydropyridazin-3-one]	–	31	–
20	Cc1cc2c(cc1C1=NNC(=O)CC1C)NC(=O)CO2 (racemic) [Example 30, 6-(3,4-Dihydro-7-methyl-3-oxo-1,4(2H)-benzoxazin-6-yl)-2,3,4,5-tetrahydro-5-methylpyridazin-3-one]	–	124	–
38	Cc1cc2c(cc1C1=NNC(=O)CC1C)N(C)C(=O)CO2 (racemic) [Example 31, 6-(3,4-Dihydro-4,7-dimethyl-3-oxo-1,4(2H)-benzoxazin-6-yl)-2,3,4,5-tetrahydro-5-methylpyridazin-3-one]	–	33	–
30	Cc1cc2c(cc1C1=NNC(=O)CC1)N(C)C(=O)C(C)O2 (racemic) [Example 33, 6-(3,4-Dihydro-2,4,7-trimethyl-3-oxo-1,4(2H)-benzoxazin-6-yl)-2,3,4,5-tetrahydropyridazin-3-one]	–	8	–
0.3	CC1CC(=O)NN=C1c1ccc2c(c1)OCC(=O)N2 (racemic) [Example 46, 6-(3,4-Dihydro-3-oxo-1,4(2H)-benzoxazin-7-yl)-2,3,4,5-tetrahydro-5-methylpyridazin-3-one]	–	–	130
9.5	CS(=O)(=O)N1CCOc2ccc(C3=NNC(=O)CC3)cc21 [Example 8, 6-(3,4-Dihydro-4-methanesulfonyl-1,4(2H)-benzoxazin-6-yl)-2,3,4,5-tetrahydropyridazin-3-one]	98	–	–
100	CC(=O)N1CCOc2ccc(C3=NNC(=O)CC3)cc21 [Example 13, 6-(4-Acetyl-3,4-dihydro-1,4(2H)-benzoxazin-6-yl)-2,3,4,5-tetrahydropyridazin-3-one]	71	–	–
630	O=C1CCC(c2ccc3c(c2)NC(=O)CO3)=NN1 [Example 20, 6-(3,4-Dihydro-3-oxo-1,4(2H)-benzoxazin-6-yl)-2,3,4,5-tetrahydropyridazin-3-one]	71	–	–
18	CN1C(=O)COc2ccc(C3=NNC(=O)CC3)cc21 [Example 21, 6-(3,4-Dihydro-4-methyl-3-oxo-1,4(2H)-benzoxazin-6-yl)-2,3,4,5-tetrahydropyridazin-3-one]	–	74	–
15	Cc1cc2c(cc1C1=NNC(=O)CC1)NC(=O)CO2 [Example 28, 6-(3,4-Dihydro-7-methyl-3-oxo-1,4(2H)-benzoxazin-6-yl)-2,3,4,5-tetrahydropyridazin-3-one]	–	46	–
56	Cc1cc2c(cc1C1=NNC(=O)CC1)N(C)C(=O)CO2 [Example 29, 6-(3,4-Dihydro-4,7-dimethyl-3-oxo-1,4(2H)-benzoxazin-6-yl)-2,3,4,5-tetrahydropyridazin-3-one]	–	12	–
31	Cc1cc2c(c(C3=NNC(=O)CC3)c1)OCC(=O)N2 [Example 38, 6-(3,4-Dihydro-6-methyl-3-oxo-1,4(2H)-benzoxazin-8-yl)-2,3,4,5-tetrahydropyridazin-3-one]	–	24	–
28	Cc1cc(C2=NNC(=O)CC2)c2c(c1)N(C)C(=O)CO2 [Example 39, 6-(3,4-Dihydro-4,6-dimethyl-3-oxo-1,4(2H)-benzoxazin-8-yl)-2,3,4,5-tetrahydropyridazin-3-one]	–	18	–
26	Cc1cc2c(c(C3=NNC(=O)CC3C)c1)OCC(=O)N2 (centres unmarked) [Example 40, 6-(3,4-Dihydro-6-methyl-3-oxo-1,4(2H)-benzoxazin-8-yl)-2,3,4,5-tetrahydro-5-methylpyridazin-3-one]	–	22	–
7	Cc1cc(C2=NNC(=O)CC2C)c2c(c1)N(C)C(=O)CO2 (centres unmarked) [Example 41, 6-(3,4-Dihydro-4,6-dimethyl-3-oxo-1,4(2H)-benzoxazin-8-yl)-2,3,4,5-tetrahydro-5-methylpyridan-3-one]	–	60	–
